In US20120083861A1, “SELECTIVE ACTIVATION OF NEURONS BY SINUSOIDAL ELECTRIC STIMULATION” (THE GENERAL HOSPITAL CORPORATION, priority 2010, published 2012):
“Also recorded” adds a separate entry of the source.

Test system: retinal ganglion cells
Assay: Ganglion cell spiking response to electric stimulation near the soma with synaptic transmission blocked pharmacologically (cell-attached patch clamp, isolated retina)
Assay type: cell-based, rabbit
Conditions: for maximum number of elicited spikes in control versus with synaptic blocker: 1 sec, plot control (x) vs blocker (y), FIG. 5c, 5d; for response to 10-Hz stimulation (spikes elicited): 10 Hz sinusoidal stimulus near soma; for stimulus threshold in blocker relative to control / effect of the blockers on stimulus threshold: 50 μM CNQX or 100 μM CdCl2, paired t-test; for response to 25-Hz stimulation (spikes elicited): 25 Hz sinusoidal stimulus near soma; for synaptically mediated response of ganglion cells to stimulation: stimulation at 5-25 Hz
Method: The present invention provides for responses to LFSS that are synaptic in origin. To determine whether presynaptic activation played a significant role in the high sensitivity of the soma region to LFSS, the response to stimulation near the soma was measured while synaptic transmission was blocked pharmacologically. The primary source of excitatory input to ganglion cells arises via glutamatergic release from the axon terminals of bipolar cells and is mediated through AMPA/kainate receptors on the ganglion cell dendrites.
The care and use of animals followed all federal and institutional guidelines, and all protocols were approved by the Institutional Animal Care and Use Committees of the Boston VA Healthcare System and/or the Subcommittee of Research Animal Care of the Massachusetts General Hospital. New Zealand White Rabbits (˜2.5 kg) were anesthetized with injections of xylazine/ketamine and subsequently euthanized with an intracardial injection of pentobarbital sodium. Immediately after death, the eyes were removed. All procedures following eye removal were performed under dim red illumination. The front of the eye was removed, the vitreous was eliminated. The retina was separated from the retinal pigment epithelium and mounted, photoreceptor side down, to a 10-mm square piece of Millipore filter paper (0.45 μm HA Membrane Filter) that was mounted with vacuum grease to the recording chamber (˜1.0 ml volume). A 2-mm circle in the center of the Millipore paper allowed light from below to be projected on to the photoreceptors.
Patch pipettes were used to make small holes in the inner limiting membrane, and ganglion cells with large somata were targeted under visual control. Spiking was recorded with a cell-attached patch electrode (4-8MΩ) filled with superfusate. For whole-cell recordings, the patch electrode was filled with (in mM): 113 CsMeSO4, 1 MgSO4, 7.8×10^−3 CaCl2, 0.1 BABTA, 10 HEPES, 4 ATP-Na2, 0.5 GTP-Na3, 5 lidocaine N-ethyl bromide (QX314-BR), 7.5 neurobiotin chloride, pH 7.2. […] Two silver-chloride coated silver wires served as the ground and were positioned at opposite edges of the recording chamber each approximately 15 mm from the targeted cell. The retina was continuously perfused at 4 mL/min with Ames' (pH 7.4) at 36° C., equilibrated with 95% O2 and 5% CO2. Pharmacological agents were applied to the bath by switching a 3-way stopcock to a 200 mL reservoir of Ames' containing one or more of the following blockers: 50 μM 6-cyano-7-nitroquinoxaline-2,3-dione (CNQX), 100 μM cadmium chloride (CdCl2).
Pulse and sinusoidal stimuli were controlled by Multi-Channel Systems STG2004 hardware and software. Two silver-chloride coated silver wires served as the return; each was positioned approximately 8 mm from the targeted cell and approximately 12 mm from each other. The height of the stimulating electrode remained fixed at 25 μm above the inner limiting membrane. The stimulating electrode was placed either directly over the sodium-channel band on the proximal axon, or ˜1 mm lateral to the soma directly over the distal axon. Because of the use of patch clamp, spikes were clearly visible through the stimulus artifact. The efficacy of various stimulation waveforms (0.2-ms pulses and 5-Hz to 100-Hz sinusoids) was tested for the two different electrode positions.
Pulsatile stimuli were biphasic pulses (equal and opposite rectangular phases) delivered at 10 pulses per second (phase duration: 200 μsec; interphase delay: 10 ms; cathodic phase first). The interphase delay was long enough for the neural response to the cathodic pulse to be completed before the onset of the anodic phase. For each stimulus amplitude, 15-30 pulses were delivered and there was a delay of >5 sec between stimulation epochs. Pulses of this duration and over the range of stimulus amplitudes produced either a single spike or no spike. If a spike was elicited, it immediately followed the cathodal pulse. […]

[1] = single blocker in bath: 50 μM CNQX or 100 μM CdCl2 alone
[2] = single blocker: 50 μM CNQX (n=6) or 100 μM CdCl2 (n=4)

Row | Compound | maximum number of elicited spikes in control versus with synaptic blocker (10-Hz stimulation) | response to 10-Hz stimulation (spikes elicited) [1] | stimulus threshold in blocker relative to control (10 Hz stimulation) | response to 25-Hz stimulation (spikes elicited) [2] | maximum number of elicited spikes in control versus with synaptic blocker (25 Hz stimulation) | stimulus threshold in blocker relative to control (25 Hz stimulation) | maximum number of elicited spikes in control versus with synaptic blocker (100-Hz stimulation) | effect of the blockers on stimulus threshold (100-Hz stimulation) | synaptically mediated response of ganglion cells to stimulation (CNQX applied) | response to 10-Hz stimulation (spikes elicited) (100 μM CdCl2 added to 50 μM CNQX, n=2/2) | response to 25-Hz stimulation (spikes elicited) (CNQX and CdCl2 both present (n=2)) | synaptically mediated response of ganglion cells to stimulation (cadmium applied in addition to CNQX)
1 | N#Cc1cc2c(cc1[N+](=O)[O-])=NC(=O)C(=O)N=2 [CNQX, 6-cyano-7-nitroquinoxaline-2,3-dione] | largely clustered around the x-axis | greatly reduced; also recorded: completely eliminated | increased significantly | greatly reduced; also recorded: blocks much of this response | mostly scattered between the line of unity slope and the x-axis | increased significantly | largely clustered around the line of unity slope | not significant | greatly reduced |  |  | 
2 | [Cl][Cd][Cl] [CdCl2, cadmium chloride] | largely clustered around the x-axis | completely eliminated; also recorded: greatly reduced | increased significantly | greatly reduced | mostly scattered between the line of unity slope and the x-axis | increased significantly | largely clustered around the line of unity slope | not significant |  | mostly eliminated | greatly reduced | completely abolish
